Experiments:
Assay type in all cases: cell-based, human
[1] = system: STING-independent DNA sensing pathway (SIDSP); assay: RT-qPCR of IFNB1 mRNA in CT DNA-treated STING KO U937 cells; conditions: PMA-differentiated STING KO U937 cells, CT DNA 16 hours; for SIDSP activation (IFNB1 mRNA expression): Ku-60019 0.125-1 μM, Nu-7441 0.25-2 μM, FIG. 4B
Description: (§1) FIG. 4A-K: Human DNA-PK is essential for the SIDSP. (A) PMA-differentiated STING KO U937 cells were treated with CT DNA for 16 hours in the presence of DMSO control, increasing concentrations of Ku-60019 ATM inhibitor [0.125, 0.25, 0.5, 1 μM], or Nu-7441 DNA-PK inhibitor [0.25, 0.5, 1, 2 μM], followed by western blot analysis of γ-H2AX phosphorylation. (B) PMA-differentiated STING KO U937 cells were treated with CT DNA for 16 hours in the presence of inhibitors as described in (A), followed by RT-qPCR analysis of IFNB1 mRNA expression. n.s.: not significant; ***:p<0.001. n=3 independent treatments per condition. (C) PMA-differentiated STING KO U937 cells were treated with CT DNA or RIG-I ligand in the presence of DMSO or Nu-7441 for 16 hours, followed by RT-qPCR analysis of IFNB1 mRNA expression. n.s.: not significant; ***:p<0.001. n=3 independent treatments per condition. (D) Western blot analysis of DNA-PK and STING in clonal lines of H1 control, STING KO and STING/DNA-PK DKO U937 cells. (E) PMA-differentiated STING KO and STING/DNA-PK DKO U937 cells were treated with CT DNA for 16 hours in DMSO or 2 μM Nu-7441, followed by RT-qPCR analysis of IFNB1 mRNA expression, normalized to Lipo control-treated cells. **:p<0.01. n=3 independent treatments per condition. (F) Primary human foreskin fibroblasts (HFF) and primary human hepatocytes from male (♂) and female (♀) donors were assessed for cGAS, STING, and DNA-PK proteins by fractionation into cytosol (C) and nuclear (N) extracts, followed by western blot. The nuclear extract was treated with salt-active nuclease to remove genomic DNA. (G) The indicated cell lines were stimulated with cGAMP for 16 hours before harvest and RT-qPCR analysis of IFNB1 mRNA expression. […] Multiple t-tests with significance determined by the Holm-Sidak method were used to compare IFNB1 in DMSO versus Nu7441 treated cells. *:p<0.05, ****:P<.0001. n=3 independent treatments per condition. […]

[2] = system: histone H2AX on serine 139 (γ-H2AX); assay: Western blot of γ-H2AX phosphorylation in CT DNA-treated STING KO U937 cells; conditions: PMA-differentiated STING KO U937 cells, CT DNA 16 hours; Ku-60019 0.125-1 μM, Nu-7441 0.25-2 μM; FIG. 4A
Description: as §1, with “(D) Western blot analysis of DNA-PK and STING in clonal lines of H1 control, STING KO and STING/DNA-PK DKO U937 cells. (E) PMA-differentiated STING KO and STING/DNA-PK DKO U937 cells were treated with CT DNA for 16 hours in DMSO or 2 μM Nu-7441, followed by RT-qPCR analysis of IFNB1 mRNA expression, normalized to Lipo control-treated cells. **:p<0.01. n=3 independent treatments per condition.” left out, “blot.” for “blot. The nuclear extract was treated with salt-active nuclease to remove genomic DNA. (G) The indicated cell lines were stimulated with cGAMP for 16 hours before harvest and RT-qPCR analysis of IFNB1 mRNA expression.”

[3] = system: WT U937 cells; assay: Global mRNA-Seq analysis in WT (H1 control) U937 cells
Description: FIG. 5A-F: The DNA-PK SIDSP activates a broad gene expression program. (A) Heat map representation of log 2 Fold Change in gene expression for the 124 antiviral response genes with significant differential expression in one of the four comparisons. The key includes a histogram in cyan plotting the distribution of log 2 Fold Change values for all the included genes. Data represent the average of three independent treatments per condition. […] Data represent the average of three independent treatments per condition. […] Data represent the average of three independent treatments per condition. (D) In H1 control U937 cells, the 16 hour CT DNA-activated log 2 Fold Change was plotted for DMSO control-treated cells on the x-axis and for Nu-7441-treated cells on the y-axis. Each dot represents a single gene that was differentially expressed at 16 hours in DMSO-treated cells (n=1024). […]
FIG. 8A-E: Normalized mRNA-Seq data comparing WT and STING KO U937 cells. (A) Boxplot depicting normalized read counts in log 2CPM format across all 36 samples. […] (C) Normalized read counts in log 2CPM format, comparing Lipo-treated WT U937 cells to Lipo-treated STING KO U937 cells. (D) Normalized read counts in log 2CPM format, comparing Lipo-treated WT U937 cells pretreated with DMSO or 2 μM N-7441. (E) Normalized read counts in log 2CPM format, comparing Lipo-treated STING KO cells pretreated with DMSO or 2 μM N-7441. […]

[4] = system: STING KO U937 cells (DNA-PK SIDSP); assay: Global mRNA-Seq analysis in STING KO U937 cells
Description: (A) Heat map representation of log 2 Fold Change in gene expression for the 124 antiviral response genes with significant differential expression in one of the four comparisons. The key includes a histogram in cyan plotting the distribution of log 2 Fold Change values for all the included genes. Data represent the average of three independent treatments per condition. […] Data represent the average of three independent treatments per condition. […] Data represent the average of three independent treatments per condition. (D) In H1 control U937 cells, the 16 hour CT DNA-activated log 2 Fold Change was plotted for DMSO control-treated cells on the x-axis and for Nu-7441-treated cells on the y-axis. Each dot represents a single gene that was differentially expressed at 16 hours in DMSO-treated cells (n=1024). […] A Wilcoxon matched pairs signed rank test was used to determine the p-value between DMSO control and Nu-7441-treated samples after DNA stimulation. Data represent the average of three independent treatments per condition. […]
Total RNA was added directly to lysis buffer from the SMART-Seq v4 Ultra Low Input RNA Kit for Sequencing (Takara), and reverse transcription was performed followed by PCR amplification to generate full length amplified cDNA. […] Libraries were pooled and quantified using a Qubit® Fluorometer (Life Technologies). Dual-index, single-read sequencing of pooled libraries was carried out on a HiSeq2500 sequencer (Illumina) with 58-base reads, using HiSeq™ v4 Cluster and SBS kits (IIlumina) with a target depth of 5 million reads per sample.

[5] = system: RNA-activated RIG-I-MAVS pathway; assay: RT-qPCR of IFNB1 mRNA in RIG-I ligand-treated STING KO U937 cells; conditions: PMA-differentiated STING KO U937 cells, RIG-I ligand 16 hours, DMSO or Nu-7441; FIG. 4C
Description: as §1, with “(D) Western blot analysis of DNA-PK and STING in clonal lines of H1 control, STING KO and STING/DNA-PK DKO U937 cells. (E) PMA-differentiated STING KO and STING/DNA-PK DKO U937 cells were treated with CT DNA for 16 hours in DMSO or 2 μM Nu-7441, followed by RT-qPCR analysis of IFNB1 mRNA expression, normalized to Lipo control-treated cells. **:p<0.01. n=3 independent treatments per condition.” left out, “blot.” for “blot. The nuclear extract was treated with salt-active nuclease to remove genomic DNA. (G) The indicated cell lines were stimulated with cGAMP for 16 hours before harvest and RT-qPCR analysis of IFNB1 mRNA expression.”

[6] = system: IRF3 S386 phosphorylation; assay: Western blot of IRF3 pS386 in HEK 293 cells after DNA damage or stress agents; conditions: STING KO HEK 293 cells, up to 12 hours; 50 μM Etoposide, 500 nM Thapsigargin
[7] = system: endoplasmic reticulum (ER) stress response; assay: Endoplasmic reticulum stress response in HEK 293 cells; conditions: 500 nM Thapsigargin, control

| SMILES | SIDSP activation (IFNB1 mRNA expression) [1] | DNA-activated phosphorylation of the histone H2AX on serine 139 (γ-H2AX) [2] | differentially expressed genes on which the inhibitor had a (mild) inhibitory effect ([3]; 16 hours post DNA transfection, 2 μM Nu-7441 vs vehicle, 718/1024 genes, FIG. 5D) [%] | effect on gene expression in the absence of DNA stimulation ([3]; Lipo-treated, 2 μM, FIG. 8D) | DNA-activated antiviral response (IFNB1 mRNA expression) ([1]; DMSO or Nu-7441, FIG. 4C) | differentially expressed genes on which the inhibitor had an inhibitory effect ([4]; STING KO U937 cells, 16 hours post DNA transfection, 2 μM Nu-7441 vs vehicle, 1254/1327 genes, up- and downregulated, FIG. 5E) [%] | effect on gene expression in the absence of DNA stimulation ([4]; STING KO U937 cells, Lipo-treated, 2 μM, FIG. 8E) | gene expression triggered by the SIDSP ([4]; summary statement in discussion) | RNA-activated RIG-I-MAVS pathway (IFNB1 mRNA expression) [5] | activation of IRF3 phosphorylation [6] | endoplasmic reticulum (ER) stress response [7] |
| --- | --- | --- | --- | --- | --- | --- | --- | --- | --- | --- | --- |
| C[C@@H]1CN(CC(=O)Nc2ccc3c(c2)Cc2cccc(-c4cc(=O)cc(N5CCOCC5)o4)c2S3)C[C@H](C)O1 [Ku-60019] | unaffected | reduced the DNA-activated phosphorylation of the histone H2AX on serine 139 (γ-H2AX) in a concentration-dependent manner |  |  |  |  |  |  |  |  |  |
| O=c1cc(N2CCOCC2)oc2c(-c3cccc4c3sc3ccccc34)cccc12 [Nu-7441, 8-(dibenzo[b,d]thiophen-4-yl)-2-morpholino-4H-chromen-4-one] | potently blocked | reduced the DNA-activated phosphorylation of the histone H2AX on serine 139 (γ-H2AX) in a concentration-dependent manner | 70.1 | no significant effect | blocked the DNA-activated antiviral response | 94.5 | no significant effect | potently reduced nearly all gene expression | had no effect |  |  |
| C/C=C(/C)C(=O)O[C@H]1C(C)=C2[C@H]([C@@H]1OC(=O)CCCCCCC)[C@@](C)(OC(C)=O)C[C@H](OC(=O)CCC)[C@@]1(O)[C@H]2OC(=O)[C@@]1(C)O [thapsigargin] |  |  |  |  |  |  |  |  |  | but not IRF3, HSPA8, or H2AX phosphorylation | induced a potent endoplasmic reticulum (ER) stress response |
